Measurements as given in patent US6294649A, “Method of cell inhibition using polypeptides derived from the venom of the Austrialian jumper ant Myrmecia pilosula” (Northern Sydney Area Health Service, priority 1996, dated 2001).
Read-outs that look alike come from different tables or passages of the source. No end group written: not given here.

Tests used:
cells = experiment: Cytotoxicity to cells (cell proliferation and flow cytometry); type: cell-based; settings: cells tested
Description: (§1) Cell proliferation and flow cytometry have been used to determine the cytotoxic effects on cells. Cell proliferation involves growing cells to log-phase growth and adding Pilosulin 1 at different final peptide concentrations and ^3 H-methyl thymidine at the same time. The cells are incubated at 37° C. for 16 hours, harvested, lysed and washed and the cells liquid scintillation counted. Flow cytometry employs the exclusion of propidium iodide from cells as an index of their viability. In experiments where fluorescent labelled monoclonal antibodies recognising cell specific markers were used, exclusion of 7-actinomycin D was used as the index of cell viability. In these latter experiments cells were incubated with the fluorescent antibodies and then washed to remove unbound antibodies. The treated cells were stored on ice and Pilosulin 1 added 5 minutes prior to flow cytometric measurement.

[1] = system: cancer cells of myeloid and lymphoid origin; experiment: Cytotoxicity towards cancer cells; type: cell-based; settings: in particular rapidly dividing cancer cells of myeloid and lymphoid origin
[2] = system: normal blood cells, in particular, lymphocytes monocytes and natural killer cells; experiment: Cytotoxicity for normal blood cells; type: cell-based
Description: as §1

[3] = system: Epstein Barr-transformed human B-cells; experiment: Cell proliferation (3H-methyl-thymidine); type: cell-based
Description: as §1
Epstein Barr-transformed human B-cells grown to log phase. One hundred […] of cells (10^5 cells) were placed in the wells of microtitre plates. Venom and venom peptides added to the wells in […] to give final concentrations used in the red cell lysis experiment. One μCi of ^3 H-methyl-thymidine was added to the wells and the plates incubated overnight at 37° C. Cells harvested 17 hr later and counted.

granulocyte population = experiment: Relative cytotoxicity for leucocyte components, flow cytometry (7-actinomycin D uptake); type: cell-based
Description: as §1
The relative cytotoxicity of Pilosulin 1 for the different components of the leucocyte population was studied and the results are shown in FIG. 3.

[4] = system: solid tumour cell lines including a breast cancer, a brain tumour and a kidney cell tumour line; experiment: Cytotoxicity for solid tumour cell lines; type: cell-based
Description: as §1

EBV-transformed B-cells = experiment: Flow cytometry cell viability (propidium iodide exclusion); type: cell-based, human; settings: 5 μM, treated for 5 minutes; untreated control about 15% permeable
Description: as §1
Flow cytometry can measure cell viability by their ability to exclude a fluorescent dye such as propidium iodide or 7-actinomycin D. EBV-transformed B-cells were cultured to log-phase growth and venom and venom peptides added. […] Cells were treated for 5 minutes with Pilosulin 1, Pilosulin 2 and melittin over a concentration range of 0.1 to 10 μM and then cell numbers were measured in the flow cytometer.

Red blood cells = experiment: Red blood cell lysis; type: cell-based; settings: 1% (v/v) red blood cells in PBS; peptides 0.3125-80 μM
Description: Red blood cells were prepared from fresh whole blood. Red blood cells were diluted to 1% (v/v) with PBS and 0.1 mL aliquots added to a 96 well microtitre plate. Venom and venom peptides were added in 5 μL of normal saline. Whole ant venom concentration (final): 80, 40, 20, 10, 5, 2.5, 1.25, 0.625, 0.3125 4μg/mL. Venom peptide concentration (final): 80, 40, 20, 10, 5, 2.5, 1.25, 0.625, 0.3125 μM.

[5] = system: Antibody-labelled (CD3-FITC) white blood cells (T-cell); experiment: Kinetics of cell killing at different temperatures (7-AAD, flow cytometry); type: cell-based; settings: 3 μM melittin
Description: The kinetics of Pilosulin 1 and melittin cell killing at different temperatures were investigated. Antibody-labelled (CD3-FITC) white blood cells were incubated with 7-AAD (4 μg/mL) and either 1.5 μM Pilosulin 1 or 3 μM melittin. Three tubes were prepared for each peptide and the tubes were incubated at either 0° C. (circles), room temperature (triangles), or 37° C. (diamonds). Samples of each tube were analysed on a flow cytometer at time zero and thereafter at 2, 5 10 and 15 minutes.

KLGPKVAKVLPKVMKEAIPMAVEMAKSQEEQQPQ [peptide 2]
cytotoxicity to cells (cells): no detectable cytotoxicity

GLGSVFGRLARILGRVIPKVAKKLGPKVAKVLPKVMKEAIPMAVEMAKSQEEQQPQ [Pilosulin 1]
cytotoxicity towards cancer cells [1]: potent cytotoxicity
cytotoxicity for normal blood cells [2]: low
cytotoxicity for normal blood cells ([2]; listed as Pilostilin 1): cytotoxic
cytotoxicity for proliferating Epstein-Barr Virus transformed B-cells [3]: cytotoxic
effectiveness as a cytotoxin at 50% cell viability (relative) ([3]; 3H-methyl-thymidine, overnight at 37° C., comparator not named): approximately 4 times
cytotoxicity for granulocytes (granulocyte population): resistant
cytotoxicity for solid tumour cell lines [4]: cytotoxic

CC[C@H](C)[C@H](NC(=O)CN)C(=O)NCC(=O)N[C@@H](C)C(=O)N[C@H](C(=O)N[C@@H](CC(C)C)C(=O)N[C@@H](CCCCN)C(=O)N[C@H](C(=O)N[C@@H](CC(C)C)C(=O)N[C@H](C(=O)N[C@H](C(=O)NCC(=O)N[C@@H](CC(C)C)C(=O)N1CCC[C@H]1C(=O)N[C@@H](C)C(=O)N[C@@H](CC(C)C)C(=O)N[C@H](C(=O)N[C@@H](CO)C(=O)N[C@@H](Cc1c[nH]c2ccccc12)C(=O)N[C@H](C(=O)N[C@@H](CCCCN)C(=O)N[C@@H](CCCNC(=N)N)C(=O)N[C@@H](CCCCN)C(=O)N[C@@H](CCCNC(=N)N)C(=O)N[C@@H](CCC(N)=O)C(=O)N[C@@H](CCC(N)=O)C(N)=O)[C@@H](C)CC)[C@@H](C)CC)[C@@H](C)O)[C@@H](C)O)C(C)C)C(C)C [Melittin]
% Viable Cells (EBV-transformed B-cells): 53.5%
efficiency on a molar basis in the lysis of red blood cells (Red blood cells): most efficient
cells killed ([5]; 0° C., 10 minutes): 25%
cells killed ([5]; 37° C., 2 minutes): all cells were killed
cells killed ([5]; room temperature, 2 minutes): 85%
cells killed ([5]; room temperature, 5 minutes): killed all cells
